According to patent US20210154202A1, “SYNTHESIS OF DENTIMOL, AN ANTIGLAUCOMA DRUG” (Virginia Commonwealth University, priority 2018, published 2021):

Experiments:
[1] = system: NIH 3T3 fibroblasts; test: Cytotoxicity study, WST-1 cell proliferation assay; type: cell-based; settings: no concentration stated
Method: Cytotoxicity study. NIH 3T3 fibroblasts were seeded in a 96-well plate at 5000 cells per well and allowed 24 h to attach. The cells were maintained in DMEM medium supplemented with 10% serum, streptomycin […] and penicillin (100 U/mL) at 37° C. in 95% air/5% CO2. Upon the removal of the medium, the cells were incubated with fresh DMEM medium (control) or fresh medium containing various amounts of OTM, OTM-PEG, or DenTimol (n=8) for 24 h. Cell viability relative to untreated cells was determined using the WST-1 cell proliferation assay.

[2] = Water solubility / hydrophobicity as stated; type: physicochemical
[3] = system: rats (cornea, ciliary body, retina); test: In vivo safety assessment, ocular tolerance and histology after once-daily dosing for seven days
Method: In vivo safety assessment. To assess in vivo ocular tolerance, rats received OTM, timolol, or DenTimol (2×5 μL, 0.5% w/v OTM equivalent) in the right eye once daily for seven days. At the conclusion of the experiment, the rats were euthanized. The eyes were enucleated and immediately fixed in Davidson's solution, and 5 μm sections prepared for histological evaluation.

[4] = Ex vivo corneal permeation study, Franz diffusion cells; type: in vitro ADME; settings: rabbit cornea, 37° C., 3.7 mM OTM equivalent donor
Method: Ex vivo corneal permeation study. Corneal permeability was determined using Franz diffusion cells (PermeGear, Hellertown, Pa.). Corneas were extracted from fresh rabbit eyes and placed immediately into diffusion cells with the endothelial surface facing the acceptor chamber and the epithelial surface facing the donor chamber. The acceptor chamber was filled with 5 mL of glutathione buffered Ringer's solution, and the donor chamber with 100 μL of a solution containing 1 mg of DenTimol (3.7 mM OTM equivalent). For comparison, permeation of OTM and OTM-PEG across the cornea were also tested at the same OTM equivalent concentration. The diffusion cells were placed in a water bath at 37° C. At various time points, 250 μL samples were withdrawn from the acceptor chamber, and drug concentrations were measured using the reverse phase HPLC system.

[5] = delivered as a topical solution; cited from earlier work

Compound | Toxicity of OTM (stated) [1] | Water solubility / hydrophobicity [2] | Histology (H&E) of cornea, ciliary body and retina after repeated dosing [3] | Drug permeated through the cornea in 4 h [4] [%] | Period after a dose within therapeutic concentration window in the anterior chamber [5] [h] | Share of total drug reaching the target organ with each dose [5]
C1CN(c2nsnc2OC[C@@H]2CO2)CCO1 [OTM, (S)-4-[4-(Oxiranylmethoxy)-1,2,5-thiadiazol-3-yl]morpholine] | non-toxic | highly hydrophobic | did not alter the structures of the cornea, ciliary body, and retina |  |  | 
CC(C)(C)NC[C@H](O)COc1nsnc1N1CCOCC1 [timolol] |  |  |  | 3.5 | 4 to 5 | about 5%
